Like-named read-outs stand apart in the source and are kept apart here.
Key:
Format in all cases: cell-based
Mycobacterium marinum [1] = assay: Infection assay: intracellular M. marinum growth (luminescence) in D. discoideum; details: for activity at 0.411523 µM / activity at 1.23457 µM / activity at 3.7037 µM / activity at 11.1111 µM / activity at 33.3333 µM / activity at 100 µM: 72 h; for activity at 0.411523 µM: conc 0.411522634 uM; for activity at 1.23457 µM: conc 1.234567901 uM; for activity at 3.7037 µM: conc 3.703703704 uM; for activity at 11.1111 µM: conc 11.11111111 uM; for activity at 33.3333 µM: conc 33.33333333 uM; for activity at 100 µM: conc 100 uM; for IC50: interpolated between the two concentrations closest to residual growth 0.5, top concentration 100 μM
Source text: (§1) Since fractions were not weighed individually, the injection mass was used to calculate an average mass per fraction and thus a nominal mass concentration.

Mycobacterium marinum [2] = assay: Anti-biotic assay: M. marinum growth in broth (luminescence); details: for activity at 0.411523 µM / activity at 1.23457 µM / activity at 3.7037 µM / activity at 11.1111 µM / activity at 33.3333 µM / activity at 100 µM: 72 h
Experimental: as §1
Plating bacteria and compounds or fractions was performed analogously to the infection assay described above. Bacteria growth was monitored with the Agilent BioTek H1 plate reader by recording luminescence at 32 °C.
The prepared plates were sealed and stored at 4 °C overnight. On the day of the experiment, nine 10 cm Petri dishes were infected (as described before) and grouped into three pools.

Dictyostelium discoideum = assay: Infection assay: growth of the host amoeba D. discoideum (fluorescence) in infection; details: for activity at 0.411523 µM / activity at 1.23457 µM / activity at 3.7037 µM / activity at 11.1111 µM / activity at 33.3333 µM / activity at 100 µM: 72 h; for IC50: read-out: IC50 Dd in infection (μM)
Source text: as §1

[3] = vehicle control set at 1, read-out: mean normalized residual growth, Mm in infection
[4] = vehicle control set at 1, read-out: median normalized residual growth, Mm in infection
[5] = read-out: mean (normalised M. marinum growth, Mm in broth)
[6] = read-out: median (normalised M. marinum growth, Mm in broth)
[7] = read-out: mean normalized residual growth, Dd in infection
[8] = read-out: median normalized residual growth, Dd in infection

Molecule `Oc1ccc(/C=C/c2cc(O)c3c(c2)O[C@@H](c2ccc(O)cc2O)[C@@H]3c2cc(O)cc(O)c2)cc1` (relative stereo) [Compound 1, (+)-Gnetin D] has an activity at 0.411523 µM (Mycobacterium marinum [1]; [3]) of 93.5%, an activity at 0.411523 µM (Mycobacterium marinum [1]; [4]) of 93.7% and an activity at 1.23457 µM (Mycobacterium marinum [1]; [3]) of 114%. It also gave an activity at 1.23457 µM (Mycobacterium marinum [1]; [4]) of 117%, an activity at 3.7037 µM (Mycobacterium marinum [1]; [3]) of 153% and an activity at 3.7037 µM (Mycobacterium marinum [1]; [4]) of 154%. The activity at 11.1111 µM (Mycobacterium marinum [1]; [3]) was 171%, the activity at 11.1111 µM (Mycobacterium marinum [1]; [4]) was 172% and the activity at 33.3333 µM (Mycobacterium marinum [1]; [3]) was 168%. It also gave an activity at 33.3333 µM (Mycobacterium marinum [1]; [4]) of 169%, an activity at 100 µM (Mycobacterium marinum [1]; [3]) of 86.4% and an activity at 100 µM (Mycobacterium marinum [1]; [4]) of 83.4%. For the same molecule, the IC50 (Mycobacterium marinum [1]) was over 100 µM, the activity at 0.411523 µM (Mycobacterium marinum [2]; [5]) was 121% and the activity at 1.23457 µM (Mycobacterium marinum [2]; [5]) was 119%. It also gave an activity at 3.7037 µM (Mycobacterium marinum [2]; [5]) of 118%, an activity at 11.1111 µM (Mycobacterium marinum [2]; [5]) of 111% and an activity at 33.3333 µM (Mycobacterium marinum [2]; [5]) of 110%. The activity at 100 µM (Mycobacterium marinum [2]; [5]) was 102%, the activity at 0.411523 µM (Mycobacterium marinum [2]; [6]) was 120% and the activity at 1.23457 µM (Mycobacterium marinum [2]; [6]) was 116%. It also gave an activity at 3.7037 µM (Mycobacterium marinum [2]; [6]) of 117%, an activity at 11.1111 µM (Mycobacterium marinum [2]; [6]) of 110% and an activity at 33.3333 µM (Mycobacterium marinum [2]; [6]) of 110%. The activity at 100 µM (Mycobacterium marinum [2]; [6]) was 102%, the activity at 0.411523 µM (Dictyostelium discoideum; [7]) was 161% and the activity at 1.23457 µM (Dictyostelium discoideum; [7]) was 111%. It also gave an activity at 3.7037 µM (Dictyostelium discoideum; [7]) of 113%, an activity at 11.1111 µM (Dictyostelium discoideum; [7]) of 81.5% and an activity at 33.3333 µM (Dictyostelium discoideum; [7]) of 58.3%. It also gave an activity at 100 µM (Dictyostelium discoideum; [7]) of 47.7%, an activity at 0.411523 µM (Dictyostelium discoideum; [8]) of 94.2% and an activity at 1.23457 µM (Dictyostelium discoideum; [8]) of 88.8%. For the same molecule, the activity at 3.7037 µM (Dictyostelium discoideum; [8]) was 85.1%, the activity at 11.1111 µM (Dictyostelium discoideum; [8]) was 80.3% and the activity at 33.3333 µM (Dictyostelium discoideum; [8]) was 86.2%. For the same molecule, the activity at 100 µM (Dictyostelium discoideum; [8]) was 82.6% and the IC50 (Dictyostelium discoideum) was over 100 µM.
`Oc1ccc(/C=C/c2cc(O)c3c(c2)O[C@H](c2ccc(O)cc2O)[C@@H]3c2cc(O)cc(O)c2)cc1` (relative stereo) [Compound 2, (+)-Gnetupendin C] was tested, and the activity at 0.411523 µM (Mycobacterium marinum [1]; [3]) was 112%, the activity at 0.411523 µM (Mycobacterium marinum [1]; [4]) was 122% and the activity at 1.23457 µM (Mycobacterium marinum [1]; [3]) was 145%. It also gave an activity at 1.23457 µM (Mycobacterium marinum [1]; [4]) of 143%, an activity at 3.7037 µM (Mycobacterium marinum [1]; [3]) of 154% and an activity at 3.7037 µM (Mycobacterium marinum [1]; [4]) of 147%. For the same molecule, the activity at 11.1111 µM (Mycobacterium marinum [1]; [3]) was 167%, the activity at 11.1111 µM (Mycobacterium marinum [1]; [4]) was 167% and the activity at 33.3333 µM (Mycobacterium marinum [1]; [3]) was 109%. The activity at 33.3333 µM (Mycobacterium marinum [1]; [4]) was 105%, the activity at 100 µM (Mycobacterium marinum [1]; [3]) was 27.8% and the activity at 100 µM (Mycobacterium marinum [1]; [4]) was 35.5%. It also gave an IC50 (Mycobacterium marinum [1]) of 66.7 µM, an activity at 0.411523 µM (Mycobacterium marinum [2]; [5]) of 97.4% and an activity at 1.23457 µM (Mycobacterium marinum [2]; [5]) of 103%. It also gave an activity at 3.7037 µM (Mycobacterium marinum [2]; [5]) of 113%, an activity at 11.1111 µM (Mycobacterium marinum [2]; [5]) of 109% and an activity at 33.3333 µM (Mycobacterium marinum [2]; [5]) of 110%. It also gave an activity at 100 µM (Mycobacterium marinum [2]; [5]) of 109%, an activity at 0.411523 µM (Mycobacterium marinum [2]; [6]) of 95.6% and an activity at 1.23457 µM (Mycobacterium marinum [2]; [6]) of 101%. The activity at 3.7037 µM (Mycobacterium marinum [2]; [6]) was 111%, the activity at 11.1111 µM (Mycobacterium marinum [2]; [6]) was 108% and the activity at 33.3333 µM (Mycobacterium marinum [2]; [6]) was 109%. It also gave an activity at 100 µM (Mycobacterium marinum [2]; [6]) of 109%, an IC50 (Mycobacterium marinum [2]; read-out: IC50 Mm in broth (μM)) of over 100 µM and an activity at 0.411523 µM (Dictyostelium discoideum; [7]) of 94.2%. It also gave an activity at 1.23457 µM (Dictyostelium discoideum; [7]) of 97.6%, an activity at 3.7037 µM (Dictyostelium discoideum; [7]) of 98.8% and an activity at 11.1111 µM (Dictyostelium discoideum; [7]) of 105%. The activity at 33.3333 µM (Dictyostelium discoideum; [7]) was 101%, the activity at 100 µM (Dictyostelium discoideum; [7]) was 114% and the activity at 0.411523 µM (Dictyostelium discoideum; [8]) was 101%. The activity at 1.23457 µM (Dictyostelium discoideum; [8]) was 91.8%, the activity at 3.7037 µM (Dictyostelium discoideum; [8]) was 86% and the activity at 11.1111 µM (Dictyostelium discoideum; [8]) was 76.8%. For the same molecule, the activity at 33.3333 µM (Dictyostelium discoideum; [8]) was 74.6%, the activity at 100 µM (Dictyostelium discoideum; [8]) was 83.1% and the IC50 (Dictyostelium discoideum) was over 100 µM.
With `Oc1cc(O)cc([C@H]2c3c(O)cc(/C=C/c4ccc(O)cc4O)cc3O[C@@H]2c2ccc(O)cc2O)c1` (relative stereo) [Compound 10, (−)-Gnetumontanin A] the activity at 0.411523 µM (Mycobacterium marinum [1]; [3]) was 90.6%, the activity at 0.411523 µM (Mycobacterium marinum [1]; [4]) was 90.5% and the activity at 1.23457 µM (Mycobacterium marinum [1]; [3]) was 132%. The activity at 1.23457 µM (Mycobacterium marinum [1]; [4]) was 135%, the activity at 3.7037 µM (Mycobacterium marinum [1]; [3]) was 120% and the activity at 3.7037 µM (Mycobacterium marinum [1]; [4]) was 120%. The activity at 11.1111 µM (Mycobacterium marinum [1]; [3]) was 145%, the activity at 11.1111 µM (Mycobacterium marinum [1]; [4]) was 152% and the activity at 33.3333 µM (Mycobacterium marinum [1]; [3]) was 157%. The activity at 33.3333 µM (Mycobacterium marinum [1]; [4]) was 160%, the activity at 100 µM (Mycobacterium marinum [1]; [3]) was 41.3% and the activity at 100 µM (Mycobacterium marinum [1]; [4]) was 59.1%. For the same molecule, the IC50 (Mycobacterium marinum [1]) was over 100 µM, the activity at 0.411523 µM (Mycobacterium marinum [2]; [5]) was 111% and the activity at 1.23457 µM (Mycobacterium marinum [2]; [5]) was 103%. For the same molecule, the activity at 3.7037 µM (Mycobacterium marinum [2]; [5]) was 95.3%, the activity at 11.1111 µM (Mycobacterium marinum [2]; [5]) was 96.3% and the activity at 33.3333 µM (Mycobacterium marinum [2]; [5]) was 99.7%. It also gave an activity at 100 µM (Mycobacterium marinum [2]; [5]) of 90%, an activity at 0.411523 µM (Mycobacterium marinum [2]; [6]) of 116% and an activity at 1.23457 µM (Mycobacterium marinum [2]; [6]) of 103%. It also gave an activity at 3.7037 µM (Mycobacterium marinum [2]; [6]) of 95.2%, an activity at 11.1111 µM (Mycobacterium marinum [2]; [6]) of 96.3% and an activity at 33.3333 µM (Mycobacterium marinum [2]; [6]) of 97.6%. The activity at 100 µM (Mycobacterium marinum [2]; [6]) was 91%, the activity at 0.411523 µM (Dictyostelium discoideum; [7]) was 126% and the activity at 1.23457 µM (Dictyostelium discoideum; [7]) was 88.6%. It also gave an activity at 3.7037 µM (Dictyostelium discoideum; [7]) of 59.8%, an activity at 11.1111 µM (Dictyostelium discoideum; [7]) of 54.4% and an activity at 33.3333 µM (Dictyostelium discoideum; [7]) of 51.5%. The activity at 100 µM (Dictyostelium discoideum; [7]) was 6.33%, the activity at 0.411523 µM (Dictyostelium discoideum; [8]) was 102% and the activity at 1.23457 µM (Dictyostelium discoideum; [8]) was 97%. It also gave an activity at 3.7037 µM (Dictyostelium discoideum; [8]) of 90.5%, an activity at 11.1111 µM (Dictyostelium discoideum; [8]) of 84.7% and an activity at 33.3333 µM (Dictyostelium discoideum; [8]) of 80.4%. For the same molecule, the activity at 100 µM (Dictyostelium discoideum; [8]) was 76.2% and the IC50 (Dictyostelium discoideum) was over 100 µM.

Source: publication PMC12015462, “Prioritization of novel anti-infective stilbene derivatives by combining metabolomic data organization and a stringent 3R-infection model in a knowledge graph” (RSC Advances, 2025)
